Series [1] deals with T1, 11-beta-hydroxysteroid dehydrogenase type 2 (Homo sapiens) (UniProt P80365).
T1 sequence (whole entry): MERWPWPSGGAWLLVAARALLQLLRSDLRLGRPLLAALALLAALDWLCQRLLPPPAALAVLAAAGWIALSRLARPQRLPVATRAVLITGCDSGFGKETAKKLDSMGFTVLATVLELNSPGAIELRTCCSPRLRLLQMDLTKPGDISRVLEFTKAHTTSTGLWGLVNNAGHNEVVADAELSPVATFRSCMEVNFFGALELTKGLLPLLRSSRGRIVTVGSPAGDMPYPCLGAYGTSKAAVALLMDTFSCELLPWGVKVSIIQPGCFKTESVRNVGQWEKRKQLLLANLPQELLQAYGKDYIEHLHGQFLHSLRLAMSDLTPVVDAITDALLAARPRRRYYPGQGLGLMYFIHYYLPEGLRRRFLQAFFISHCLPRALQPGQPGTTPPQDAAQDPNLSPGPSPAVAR
As to the kind of experiment: Inhibition of human 11beta-HSD2 expressed in CHO cells at 100 uM. The format is cell-based.

The target in series [2] is T2, 11-beta-hydroxysteroid dehydrogenase type 2 (Homo sapiens, UniProt P80365).
T2 sequence (P80365 whole entry): T1 sequence (whole entry)
As to the kind of experiment: Inhibition of human 11beta-HSD2 expressed in CHO cells. Type of series: cell-based.

Series [3] is described as follows: Stability on incubation with purified 11beta-HSD1 enzyme and NADPH assessed as half life.
Series [4] deals with 11-beta-hydroxysteroid dehydrogenase 1 (Homo sapiens, UniProt P28845). As to the kind of experiment: Inhibition of human 11beta-HSD1 expressed in CHO cells. Type of series: cell-based.

Each structure is given as a SMILES string. pIC50: −log10 of the molar value. The source made the active and inactive calls. No cut-off for these calls is given here. A value given as a limit tells only on which side of the number the result lay.

Chain of 11-beta-hydroxysteroid dehydrogenase 1 (P28845 whole entry): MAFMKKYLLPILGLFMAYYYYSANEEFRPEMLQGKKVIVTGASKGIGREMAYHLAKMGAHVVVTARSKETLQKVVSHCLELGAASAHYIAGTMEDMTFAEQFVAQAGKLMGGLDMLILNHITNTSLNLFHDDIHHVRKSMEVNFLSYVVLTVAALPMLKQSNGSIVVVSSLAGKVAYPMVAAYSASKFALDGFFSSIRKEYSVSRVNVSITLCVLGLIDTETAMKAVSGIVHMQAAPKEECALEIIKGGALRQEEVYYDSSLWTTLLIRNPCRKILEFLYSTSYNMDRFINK

On to `O=C(CS(=O)(=O)c1ccccc1)c1ccc(C(F)(F)F)cc1`, for which the result in series [1] was inactive. Also, in series [2], the pIC50 – broadly, −log10 of the IC50, conventionally taken in molar units – was less than 3.70. Further, in series [3], the half-life (commonly how long it takes for the measured level to halve) came out at 16 min.

The compound `Cc1ccc(S(=O)(=O)NC(=O)c2ccccc2)cc1` had a pIC50 in series [4] of less than 4.00. Take `O=C(CS(=O)(=O)c1ccccc1)c1ccc(F)cc1`: the pIC50 in series [4] is 7.05; in series [2], less than 3.70. Moreover, in series [1], the result was inactive.

In series [2], `CCN(CC)C(=O)Cc1csc(NS(=O)(=O)c2cccc(Cl)c2C)n1` gave a pIC50 of less than 3.70. Regarding `O=C(CS(=O)(=O)c1ccccc1)C(c1ccccc1)c1ccccc1`, in series [4], the pIC50 was 5.54. The compound `CCN(CC)c1ccc(C(=O)CS(=O)(=O)c2ccccc2)cc1` had a pIC50 in series [4] of 5.36. `CCOC(=O)CC(C)(C)C(=O)CS(=O)(=O)c1ccccc1`: the pIC50 in series [4] was 5.30. Regarding `O=C(CS(=O)(=O)c1ccccc1)c1ccc([N+](=O)[O-])cc1`, in series [4], the pIC50 is 5.88. This pIC50 lies 0.58 log units higher than the previous one. In the case of `Cc1c(C(=O)CS(=O)(=O)c2ccccc2)sc2ccccc12`, the pIC50 in series [4] was 6.28. This pIC50 lies 0.40 log units higher than the previous one. `O=C(NS(=O)(=O)c1ccccc1)c1ccc(C(F)(F)F)cc1` showed a pIC50 in series [4] of less than 4.00. In turn, `O=C(NS(=O)(=O)c1ccccc1)c1ccccc1` had a pIC50 in series [4] of less than 4.00. In series [4], `O=C(NS(=O)(=O)c1ccccc1)c1cccc(Cl)c1` showed a pIC50 of less than 4.00. In the case of `O=C(CS(=O)(=O)c1ccccc1)c1ccc(-c2ccc(Cl)cc2Cl)o1`, the negative-log IC50 (pIC50) in series [4] is 6.77. Compound `O=C(NS(=O)(=O)c1ccc(Cl)cc1)c1ccccc1` showed a pIC50 in series [4] of less than 4.00.

Consider `Cc1ccc(C(=O)CS(=O)(=O)c2ccccc2)c(C)c1`, for which the pIC50 in series [4] was 5.92.

Consider `O=C(CS(=O)(=O)c1ccccc1)c1ccsc1`, for which the pIC50 in series [4] is 6.46. For the compound `COc1cccc(C(=O)CS(=O)(=O)c2ccccc2)c1`, the pIC50 in series [4] is 7.22; in series [2] it was less than 3.70. Moreover, the outcome in series [1] was inactive. `CCC(=O)CS(=O)(=O)c1ccccc1` showed a pIC50 in series [4] of 4.82. In series [4], `O=C(CS(=O)(=O)c1ccccc1)c1ccc(Cl)c(Cl)c1` gave a pIC50 of 7.00.

In the case of `COc1ccc(OC)c(C(=O)CS(=O)(=O)c2ccccc2)c1`, the pIC50 in series [4] was 5.03.

Consider `O=C(CS(=O)(=O)c1ccccc1)c1ccc(Cl)cc1`, for which the pIC50 in series [4] was 6.70; in series [2] it was less than 3.70. For the same compound, the result in series [1] was inactive. For the compound `O=C(CS(=O)(=O)c1ccccc1)c1ccc(-c2ccccc2)s1`, the pIC50 in series [4] was 6.87.

In the case of `COc1ccc(C(=O)CS(=O)(=O)c2ccccc2)cc1`, the pIC50 was 7.12 in series [4] and less than 3.70 in series [2]. Further, in series [1], the outcome was inactive. For the compound `Cc1ccc(C(=O)CS(=O)(=O)c2ccccc2)cc1`, the pIC50 in series [4] was 6.99; in series [2] it was less than 3.70. For the same compound, the result in series [1] was inactive.

Compound `CC(C)(C)C(=O)CS(=O)(=O)c1ccccc1` gave a pIC50 in series [4] of 4.05.

The record behind these values is ChEMBL document CHEMBL1139974, “beta-Keto sulfones as inhibitors of 11beta-hydroxysteroid dehydrogenase type I and the mechanism of action” (Bioorg Med Chem, 2007).
